Measured values taken from US20110251135A1, “INHIBITORS OF PERITONEAL SEEDING OF CANCER CELLS” (University of Utah Research Foundation, priority 2008, published 2011).

How the values were obtained:
[1] = system: IκB phosphorylation and TNFα-induced NF-κB activation; settings: Pierce et al., J Biol Chem 272:21096-103, 1997; cited from earlier work
NF-κB = NF-κB electrophoretic mobility shift assay (EMSA), nuclear lysates of treated HT-29 cells; assay type: cell-based, human; settings: 10 μM, 3 and 6 hour incubations
HT-29 xenografts = assay: Subcutaneous colon cancer xenograft in athymic mice; assay type: in vivo, mouse; settings: athymic mice; compound alone; cell line not given
Protocol: (§1) DLD-1, HCT-116, and HT-29 cells were cultured for 6 days in soft agar in the presence of DMSO (control), 10 μM BAY 11-7082, or 10 μM BAY 11-7085. The data points represent the means of colony counts per field (20×) performed in 5 different regions of the culture dishes. The data shown represent a typical result of two separate experiments. FIG. 2B and FIG. 2C are graphs that show athymic mice received subcutaneous injections of HT-29 (FIG. B) or HCT-116 (FIG. C) cells, followed by […] of BAY 11-7085 (dark bars) or DMSO (white bars) intraperitoneally twice weekly. The bars represent the 25-75% ranges of the tumor volumes and the horizontal lines in the bars are the medians. Using the Kruskal-Wallace statistical test to compare the median tumor volumes between BAY 11-7085 and DMSO yielded a p-value of 0.005 for HT-29 cells but >0.05 for HCT-116 cells.
HT-29 and HCT-116 cells were harvested in 0.25% trypsin-PBS-EDTA, washed once in media and PBS, and resuspended in PBS at 1 million cells per 200 μL. One million cells were injected either subcutaneously in the backs or intraperitoneally in 5 week old female nu/nu athymic mice (Charles River Labs). For the mice with subcutaneous tumors, the tumors were allowed to establish themselves for 10 days after which they were randomized to BAY 11-7085 or DMSO. For the mice with intraperitoneal tumors, the mice received DMSO or BAY 11-7085 (5 mg/kg) 24 hours before the cancer cells were injected intraperitoneally. […] Subcutaneous tumor sizes were determined by measuring the length and width with calipers. These studies were approved by the University of Utah Institutional Review Board and Institutional Animal Care and Use Committee and performed in the Animal Resource Center. Mice were euthanized when they experienced a greater than 10% loss in body weight or if they appeared ill. Post-mortem examinations included sectioning of kidney, lung, and liver tissues which were stained with hematoxylin and eosin followed by examination for tissue toxicity/damage by an experienced mouse pathologist (E.J.E.) who was blinded to therapy.
HCT-116 and HT-29 cell lines were used to generate subcutaneous tumors in athymic female mice. The mice were subsequently randomized to be treated with vehicle (DMSO) alone or BAY 11-7085 […] twice weekly for 28 days.

adherent HT-29 cells = assay: Annexin V-FITC apoptosis assay, adherent cells; assay type: cell-based, human
Source text: FIG. 3 is a group of graphs that show NF-κB inhibitors cause apoptosis of colon cancer cells. […] The data points represent the average percent of annexin V-positive, propidium iodide-negative cells (of the total cells counted) from triplicate experiments. The error bars represent the standard error of the means. […] The results shown are a graphic representation of individual flow cytometry results expressed as the percentage of cells that were annexin V-positive of those that excluded propidium iodide. […] An immunoblot of the lysates for cleaved PARP was performed. Each lane represents equal total protein concentrations. […] The cells were allowed to adhere to plastic dishes for 1 hour after which they were washed gently in PBS and stained with crystal violet. The crystal violet stained cells were solubilized in deoxycholate and the absorbance detected in a spectrophotometer at 590 nm. The adherent cells were expressed as a fraction of the controls. Each data point represents the average of triplicate experiments and the error bars the standard errors of the means.
(§2) The data points represent the means of triplicate experiments and the error bars the standard errors of the means. […] The percent of apoptotic cells was then determined by the annexin V assay. […] The results shown are typical of two separate experiments. […] Immunoblots were performed for c-IAP-2, TRAF-1, TRAF-2, and FLIP. All lanes contain equal total protein.
(§3) Single cell suspensions were plated at 100,000 cells per well in 24-well plates in media containing DMSO, BAY 11-7082, BAY 11-7085, or MG-132 for 8-24 hours in an incubator. Alternatively, DMSO, BAY 11-7082, BAY 11-7085, or MG-132 were added to cells that were confluent and adherent for several days. The nonadherent cells were aspirated off with the media and spun for 3 minutes at 2,000 rpm in 15 mL polypropylene tubes. The adherent cells were washed twice with PBS, dispersed in trypsin, and spun down for 3 minutes at 2,000 rpm in 15 mL polypropylene tubes. The nonadherent and adherent cells were resuspended in 1× binding buffer (10 mM HEPES/NaOH, pH 7.4, 140 mM NaCl, and 2.5 mM CaCl2) to a final concentration of 10^6 cells/mL. 100 μL of the cell solution were transferred to a 5 mL culture tube and incubated with 5 μL of annexin V-FITC-conjugated monoclonal antibody (Pharmingen) and 10 μl, of propidium iodide (from a 50 μg/mL stock solution made in PBS) in the dark at 25° C. for 15 minutes. 400 μL of binding buffer was added to each tube and the cells were analyzed by flow cytometry immediately. The percent of apoptosis was determined as the percent of annexin V-positive, propidium iodide-negative cells of the total cells counted.

[2] = system: DLD-1, HCT-116, HT-29 colon cancer cell lines; assay: Cell proliferation assay (crystal violet, 96-well); assay type: cell-based, human
Protocol: as §2
For the cell proliferation assay, cells were dispersed and plated at 40,000 cells/well in 96-well dishes. At various days in culture, the cells were gently washed twice with 100 μL/well of ice-cold blocking buffer (1% radioimmunoassay grade BSA in PBS) and twice with 100 μL/well of ice-cold PBS. The cells were fixed for 10 min in 100% ice-cold methanol (100 μL/well), then allowed to air-dry. The cells were stained with 100 μL/well of 0.1% crystal violet in H20 for 10 minutes, then washed gently four times with dd H20 and four times with PBS. The plates were then air-dried completely. The stained cells were then solubilized in 1% sodium deoxycholate, and the plates read at 590 nm in a spectrophotometer. The absorption at 590 nm is proportional to the number of attached cells.

DLD-1 cells = assay: Soft agar colony formation assay; assay type: cell-based, human; settings: 10 μM for 6 days
Protocol: as §1
(§4) Anchorage-independent cell growth is a hallmark of cancer cells and is a good correlation to tumorigencity in vivo. Therefore, the effects of BAY 11-7082 and BAY 11-7085 were examined on colon cancer cell growth using the soft agar colony formation assay.

HCT-116 cells = assay: Soft agar colony formation assay; assay type: cell-based, human; settings: 10 μM for 6 days
Protocol: as §1, §4

HT-29 cells = assay: Soft agar colony formation assay; assay type: cell-based, human; settings: 10 μM for 6 days
Protocol: as §1, §4

JNK/SAPK and p38 = settings: Pierce et al., J Biol Chem 272:21096-103, 1997; cited from earlier work
[3] = system: transiently suspended HT-29 cells; assay: Apoptosis of transiently suspended cells during readhesion (annexin V assay); assay type: cell-based, human; settings: for apoptosis of readhering HT-29 colon cancer cells: NF-κB inhibitors other than BAY 11-7085
Protocol: HT-29 cells that were either transiently suspended with trypsin-EDTA or adherent for three days, were treated at time zero with DMSO or 10-100 μM BAY 11-7085. The percent of apoptotic cells was determined using the annexin V flow cytometry assay and graphed versus the dose of BAY 11-7085. FIG. 4B are photographs showing DLD-1, FIG. 4C are photographs showing HCT-116, and FIG. 4D are photographs showing HT-29 cells that were transiently suspended in trypsin-EDTA and allowed to readhere to glass coverslips for 1-24 hours. The cells were fixed and immunostained with an NF-κB p65 subunit monoclonal antibody.
The transiently suspended cells were lysed and allowed to bind to DNA oligonucleotides, containing the NF-κB consensus binding site, that were immobilized to 96-well plates. NF-κB protein bound to the oligonucleotides was detected by an antibody to the p65 subunit that only recognized p65 that is bound to DNA. The positive control was HeLa cells that were stimulated with TNFα. A control was performed using excess free NF-κB oligonucleotides (Competitor). […] NF-κB binding activity was determined by the TransAM assay as in FIG. 5A. […] The data shown represent typical results of three separate experiments. […] An immunoblot for COX-2 was performed.
The percentage of apoptotic cells was determined using the annexin V assay. The data points represent the averages of three experiments; bars, +−.SE. E. DLD-1 and F. HT-29 cells were transduced with an adenovirus containing the IκB super-repressor construct. After 3 days, the cells were transiently suspended and allowed to readhere in the presence of subapoptotic concentrations of BAY 11-7085 or DMSO (vehicle) for 8 hours. The data are expressed as fractions of cells surviving compared with the controls (no adenovirus) and were quantitatively determined by staining the remaining adherent cells with crystal violet.
as §3
Various concentrations of BAY 11-7085 were added to HT-29 cells that were transiently suspended in trypsin-PBS for approximately 15 minutes before replating. The transiently suspended cells were quickly allowed to readhere in order to prevent anoikis. Alternatively, BAY 11-7085 was added to adherent HT-29 cell monolayers.

[4] = system: colon and pancreatic cancer cells; assay: Apoptosis of colon and pancreatic cancer cells during readhesion; assay type: cell-based, human; settings: not shown

## Cc1ccc(S(=O)(=O)/C=C/C#N)cc1 [BAY 11-7082, (2E)-3-(tolylsulfonyl)-2-propenenitrile]
[1]
  IκB phosphorylation and TNFα-induced NF-κB activation: inhibit IκB phosphorylation and TNFα-induced NF-κB activation
NF-κB
  inhibition of NF-κB activity (EMSA): more profound inhibition of NF-κB activity occurred with BAY 11-7085 than BAY 11-7082
HT-29 xenografts
  colon cancer xenograft growth: inhibit colon cancer xenograft growth
Adherent HT-29 cells; adherent HT-29, 24 hours, BAY compounds at doses up to 20, MG-132 20 μM
  level of apoptosis (annexin V-positive, propidium iodide-negative cells): caused an increase in the level of apoptosis
[2]; 10 μM, cultured up to 8 days
  cell proliferation: but not BAY 11-7082 greatly inhibited cell proliferation
DLD-1 cells
  anchorage-independent proliferation: significantly inhibited
HCT-116 cells
  anchorage-independent proliferation: but not HCT-116
HT-29 cells
  anchorage-independent proliferation: significantly inhibited
JNK/SAPK and p38
  activation of JNK/SAPK and p38: activate JNK/SAPK and p38

## S=C(S)N1CCCC1 [PDTC, pyrrolidine dithiocarbamate]
[3]; various concentrations, 4 hours, compared with BAY 11-7085
  induction of apoptosis of HT-29 cells during readhesion: caused apoptosis of HT-29 cells during readhesion

## cA2: antagonistic and chimeric TNFα monoclonal antibody, inhibits TNFα binding to TNFα receptors
Adherent HT-29 cells; HT-29, 50 μg/mL cA2 for 48 hours, then 20 μM BAY 11-7085 for 24 hours
  effect of cA2 pretreatment on BAY 11-7085-induced apoptosis: did not diminish BAY 11-7085-induced apoptosis
[2]; cA2 at 10 and 50 μg/mL, after several days of treatment
  colon cancer cell proliferation: caused a significant inhibition of colon cancer cell proliferation

## CC(C)C[C@H](NC(=O)[C@H](Cc1ccccc1)NC(=O)c1cnccn1)B(O)O [bortezomib]
[4]
  apoptosis of colon and pancreatic cancer cells during readhesion: failed to induced apoptosis
[3]
  apoptosis of readhering HT-29 colon cancer cells: failed to induce apoptosis

## infliximab
[4]
  apoptosis of colon and pancreatic cancer cells during readhesion: failed to induced apoptosis
[3]
  apoptosis of readhering HT-29 colon cancer cells: failed to induce apoptosis
